Test results as given in patent publication US10112940B2, “Histone demethylase inhibitors” (Celgene Quanticel Research, Inc., priority 2014, dated 2018).

Legend:
[1] = tested on: KYSE-150 esophageal carcinoma cell line; test: In vitro cell-based assay: BrdU incorporation cell proliferation ELISA; set-up: species or system human; conditions: Homo sapiens, KYSE-150 cells, 168 hours compound incubation, read-out: Cellular IC50
Procedure: Cell lines tested include the JMJD2C gene amplified cell line KYSE-150. This is a quantitative ELISA assay measuring DNA incorporation of BrdU during S-phase as a direct readout of cellular proliferation.
Assay Principle: This is a colorimetric immunoassay for the quantification of cell proliferation. Cells treated for 168 hours with test compounds are assayed for their ability to go through S-phase as a measure of their proliferative potential.
Assay Method: The human KYSE-150 (SMAD4 mut, TP53 mut) esophageal carcinoma cell line was seeded at 2,000 cells/well on a 96-well tissue culture treated plate. After an overnight incubation, cells were treated with compound in an 11-point dilution series with final concentrations ranging from 100 μM to 2 nM. Cells were then incubated in the presence of compound for 168 hours. After compound incubation the cells were assayed using a BrdU Cell Proliferation ELISA (Roche). The cells were first incubated with BrdU labeling reagent for 2 hours. After 2 hours, the BrdU incorporated cells were fixed and denatured, probed with an anti-BrdU-Peroxidase antibody for 1.5 hours and washed. Finally, a tetramethylbenzidine peroxidase substrate was added to each well for 15 minutes followed by a H2SO4 stop solution. The plate was read at 450 nm, and the raw optical density data was transferred into XLFit (IDBS) for IC50 calculation using the formula: fit=(D+((Vmax*(x^n))/((x^n)+(Km^n))))
Table 4 provides the cellular IC50 values of various compounds disclosed herein.

[2] = molecular target: JMJD2C (Homo sapiens (Human), UniProt Q9H3R0); test: JMJD2C in vitro enzyme inhibition assay (TR-FRET); format: biochemical; conditions: 0.3 nM JMJD2C, 300 nM H3K9me3-biotin peptide, 2 μM alpha-ketoglutaric acid, 30 minutes
Procedure: This assay determines the ability of a test compound to inhibit JMJD2C demethylase activity. Baculovirus expressed JMJD2C (GenBank Accession #BC143571, AA 2-372) was purchased from BPS Bioscience (Cat#50105).
The ability of test compounds to inhibit the activity of JMJD2C was determined in 384-well plate format under the following reaction conditions: 0.3 nM JMJD2C, 300 nM H3K9me3-biotin labeled peptide (Anaspec cat #64360), 2 μM alpha-ketoglutaric acid in assay buffer of 50 mM HEPES, pH7.3, 0.005% Brij35, 0.5 mM TCEP, 0.2 mg/ml BSA, 50 μM sodium L-ascorbate, and 2 μM ammonium iron(II) sulfate. Reaction product was determined quantitatively by TR-FRET after the addition of detection reagent Phycolink Streptavidin-allophycocyanin (Prozyme) and Europium-anti-di-methylated histone H3 lysine 9 (H3K9me2) antibody (PerkinElmer) in the presence of 5 mM EDTA in LANCE detection buffer (PerkinElmer) at a final concentration of 50 nM and 1 nM, respectively.
The assay reaction was initiated by the following: 2 μl of the mixture of 900 nM H3K9me3-biotin labeled peptide and 6 μM alpha-ketoglutaric acid with 2 μl of 11-point serial diluted inhibitor in 3% DMSO were added to each well of the plate, followed by the addition of 2 μl of 0.9 nM JMJD2C to initiate the reaction. The reaction mixture was incubated at room temperature for 30 minutes, and terminated by the addition of 6 μl of 5 mM EDTA in LANCE detection buffer containing 100 nM Phycolink Streptavidin-allophycocyanin and 2 nM Europium-anti-H3K9me2 antibody. Plates were read by EnVisionMultilabel Reader in TR-FRET mode (excitation at 320 nm, emission at 615 nm and 665 nm) after 1 hour incubation at room temperature. A ratio was calculated (665/615) for each well and fitted to determine inhibition constant (IC50).
The ability of the compounds disclosed herein to inhibit demethylase activity was quantified and the respective IC50 value was determined. Table 3 provides the IC50 values of various compounds disclosed herein.

Sequence of JMJD2C (Q9H3R0 2-372): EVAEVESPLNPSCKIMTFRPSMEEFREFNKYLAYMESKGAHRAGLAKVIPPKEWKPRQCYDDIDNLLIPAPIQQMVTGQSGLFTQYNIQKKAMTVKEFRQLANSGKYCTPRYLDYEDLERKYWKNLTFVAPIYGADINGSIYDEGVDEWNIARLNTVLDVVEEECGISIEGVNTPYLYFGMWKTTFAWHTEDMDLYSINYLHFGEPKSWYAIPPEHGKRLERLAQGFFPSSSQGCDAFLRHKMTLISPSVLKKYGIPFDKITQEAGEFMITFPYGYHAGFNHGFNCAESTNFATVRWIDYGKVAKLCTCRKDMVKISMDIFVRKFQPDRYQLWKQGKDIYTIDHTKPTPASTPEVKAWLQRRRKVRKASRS

Row | Compound | IC50 [1] | IC50 [2]
1 | CN(c1ccc(Cl)cc1)c1ccc(Oc2nc(O)c3ccncc3n2)cc1 [Example 94, 2-[4-(4-chloro-N-methylanilino)phenoxy]pyrido[3,4-d]pyrimidin-4-ol] | 100 to 1000 nM | 100 to 1000 nM
2 | CCN(c1ccccc1)c1ccc(Oc2nc(O)c3ccncc3n2)cc1 [Example 80, 2-[4-(N-ethylanilino)phenoxy]pyrido[3,4-d]pyrimidin-4-ol] | 100 to 1000 nM | 100 to 1000 nM
3 | CN(c1ccc(Oc2nc(O)c3ccncc3n2)cc1)c1cccc(C#N)c1 [Example 40, 3-{[4-(4-hydroxy-pyrido[3,4-d]pyrimidin-2-yloxy)-phenyl]-methyl-amino}-benzonitrile] | > 10000 nM | 100 to 1000 nM
4 | CN(c1ccccc1)c1ccc(Oc2nc(O)c3ccncc3n2)cc1 [Example 5, 2-[4-(Methyl-phenyl-amino)-phenoxy]-pyrido[3,4-d]pyrimidin-4-ol] | 100 to 1000 nM | 100 to 1000 nM
5 | COCC(C)(C)c1ccc(N(C)c2ccc(Oc3nc(O)c4ccncc4n3)cc2)cc1 [Example 67, 2-[4-[4-(1-methoxy-2-methylpropan-2-yl)-N-methylanilino]phenoxy]pyrido[3,4-d]pyrimidin-4-ol] | ≤ 100 nM | 1000 to 10000 nM
6 | CC[C@@H](C)c1ccc(N(C)c2ccc(Oc3nc(O)c4ccncc4n3)cc2)cc1 [Example 78, 2-[4-[4-[(2R)-butan-2-yl]-N-methylanilino]phenoxy]pyrido[3,4-d]pyrimidin-4-ol] | ≤ 100 nM | 1000 to 10000 nM
7 | CN(c1ccc(Oc2nc(O)c3ccncc3n2)cc1)c1cccc(S(C)(=O)=O)c1 [Example 56, 2-[4-(N-methyl-3-methylsulfonylanilino)phenoxy]pyrido[3,4-d]pyrimidin-4-ol] | > 10000 nM | 100 to 1000 nM
8 | CN(c1ccc(OCC(C)(C)C)cc1)c1ccc(Oc2nc(O)c3ccncc3n2)cc1 [Example 75, 2-[4-[4-(2,2-dimethylpropoxy)-N-methylanilino]phenoxy]pyrido[3,4-d]pyrimidin-4-ol] | ≤ 100 nM | 1000 to 10000 nM
9 | Oc1nc(Oc2ccc3c(c2)CCN3c2ccccc2)nc2cnccc12 [Example 32, 2-(1-phenyl-2,3-dihydro-1H-indol-5-yloxy)-pyrido[3,4-d]pyrimidin-4-ol] | 1000 to 10000 nM | 100 to 1000 nM
10 | Oc1nc(Oc2ccc3c(ccn3Cc3ccccc3)c2)nc2cnccc12 [Example 4, 2-(1-Benzyl-1H-indol-5-yloxy)-pyrido[3,4-d]pyrimidin-4-ol] | 100 to 1000 nM | 100 to 1000 nM
11 | CN(c1ccc(OCC(F)(F)F)cc1)c1ccc(Oc2nc(O)c3ccncc3n2)cc1 [Example 73, 2-[4-[N-methyl-4-(2,2,2-trifluoroethoxy)anilino]phenoxy]pyrido[3,4-d]pyrimidin-4-ol] | ≤ 100 nM | 100 to 1000 nM
12 | Cc1ccc(N(C)c2ccc(Oc3nc(O)c4ccncc4n3)cc2)cc1F [Example 53, 2-[4-(3-fluoro-N,4-dimethylanilino)phenoxy]pyrido[3,4-d]pyrimidin-4-ol] | 100 to 1000 nM | 100 to 1000 nM
13 | CNCCC(C)c1ccc(N(C)c2ccc(Oc3nc(O)c4ccncc4n3)cc2)cc1 (stereo not shown) [Example 72, 2-[4-[N-methyl-4-[4-(methylamino)butan-2-yl]anilino]phenoxy]pyrido[3,4-d]pyrimidin-4-ol] | > 10000 nM | ≤ 100 nM
14 | Cc1ccc(N(C)c2ccc(Oc3nc(O)c4ccncc4n3)cc2)cc1N1CCN(C)CC1 [Example 105, 2-[4-[N,4-dimethyl-3-(4-methylpiperazin-1-yl)anilino]phenoxy]pyrido[3,4-d]pyrimidin-4-ol] | 1000 to 10000 nM | ≤ 100 nM
15 | CN(c1ccc(CC2CC2)cc1)c1ccc(Oc2nc(O)c3ccncc3n2)cc1 [Example 76, 2-[4-[4-(cyclopropylmethyl)-N-methylanilino]phenoxy]pyrido[3,4-d]pyrimidin-4-ol] | ≤ 100 nM | 1000 to 10000 nM
16 | CN(c1ccc(OCC2CC2)cc1)c1ccc(Oc2nc(O)c3ccncc3n2)cc1 [Example 101, 2-[4-[4-(cyclopropylmethoxy)-N-methylanilino]phenoxy]pyrido[3,4-d]pyrimidin-4-ol] | 100 to 1000 nM | 1000 to 10000 nM
17 | Oc1nc(Oc2ccc3c(ccn3-c3ccccc3)c2)nc2cnccc12 [Example 103, 2-(1-phenylindol-5-yl)oxypyrido[3,4-d]pyrimidin-4-ol] | > 10000 nM | 1000 to 10000 nM
18 | Oc1nc(Oc2ccc3cn(Cc4ccccc4)nc3c2)nc2cnccc12 [Example 12, 2-(2-Benzyl-2H-indazol-6-yloxy)-pyrido[3,4-d]pyrimidin-4-ol] | 1000 to 10000 nM | 100 to 1000 nM
19 | CC(CN)c1ccc(N(C)c2ccc(Oc3nc(O)c4ccncc4n3)cc2)cc1 (stereo not shown) [Example 37, 2-(4-{[4-(2-amino-1-methyl-ethyl)-phenyl]-methyl-amino}-phenoxy)-pyrido[3,4-d]pyrimidin-4-ol] | > 10000 nM | ≤ 100 nM
20 | CN(c1ccc(Oc2nc(O)c3ccncc3n2)cc1)c1ccc(C(C)(C)C)cc1 [Example 92, 2-[4-(4-tert-butyl-N-methylanilino)phenoxy]pyrido[3,4-d]pyrimidin-4-ol] | ≤ 100 nM | 100 to 1000 nM
21 | COCCN(C)CC(C)c1ccc(N(C)c2ccc(Oc3nc(O)c4ccncc4n3)cc2)cc1 (stereo not shown) [Example 38, 2-{4-[(4-{2-[(2-methoxy-ethyl)-methyl-amino]-1-methyl-ethyl}-phenyl)-methyl-amino]-phenoxy}-pyrido[3,4-d]pyrimidin-4-ol] | ≤ 100 nM | 100 to 1000 nM
22 | Cc1ccc(N(C)c2ccc(Oc3nc(O)c4ccncc4n3)cc2)nc1 [Example 43, 2-[4-[methyl-(5-methylpyridin-2-yl)amino]phenoxy]pyrido[3,4-d]pyrimidin-4-ol] | 100 to 1000 nM | 100 to 1000 nM
23 | CN(c1ccc(Oc2nc(O)c3ccncc3n2)cc1)c1ccccn1 [Example 1, 2-[4-(Methyl-pyridin-2-yl-amino)-phenoxy]-pyrido[3,4-d]pyrimidin-4-ol] | 1000 to 10000 nM | 100 to 1000 nM
24 | C[C@H](c1ccccc1)N(C)c1ccc(Oc2nc(O)c3ccncc3n2)cc1 [Example 52, 2-[4-[methyl-[(1R)-1-phenylethyl]amino]phenoxy]pyrido[3,4-d]pyrimidin-4-ol] | 1000 to 10000 nM | 100 to 1000 nM
25 | CN(c1ccc(Oc2nc(O)c3ccncc3n2)cc1)c1cccc(N2CCCC(N)C2)c1 (stereo not shown) [Example 58, 2-[4-[3-(3-aminopiperidin-1-yl)-N-methylanilino]phenoxy]pyrido[3,4-d]pyrimidin-4-ol] | > 10000 nM | ≤ 100 nM
26 | CN(c1ccc(Oc2nc(O)c3ccncc3n2)cc1)c1cccc(Cl)c1 [Example 95, 2-[4-(3-chloro-N-methylanilino)phenoxy]pyrido[3,4-d]pyrimidin-4-ol] | 1000 to 10000 nM | 1000 to 10000 nM
27 | CN(c1ccc(Oc2nc(O)c3ccncc3n2)cc1)c1ccc(C(C)(C)CO)cc1 [Example 68, 2-[4-[4-(1-hydroxy-2-methylpropan-2-yl)-N-methylanilino]phenoxy]pyrido[3,4-d]pyrimidin-4-ol] | 100 to 1000 nM | 100 to 1000 nM
28 | CC(CCN(C)C)c1ccc(N(C)c2ccc(Oc3nc(O)c4ccncc4n3)cc2)cc1 (stereo not shown) [Example 115, 2-(4-{[4-(3-dimethylamino-1-methyl-propyl)-phenyl]-methyl-amino}-phenoxy)-pyrido[3,4-d]pyrimidin-4-ol] | > 10000 nM | ≤ 100 nM
29 | CC(C)COc1ccc(N(C)c2ccc(Oc3nc(O)c4ccncc4n3)cc2)cc1 [Example 74, 2-[4-[N-methyl-4-(2-methylpropoxy)anilino]phenoxy]pyrido[3,4-d]pyrimidin-4-ol] | ≤ 100 nM | 1000 to 10000 nM
